Some test systems named below: OVCAR-4 ovarian; CCRF-CEM leukemia; UACC-62 melanoma; HCT-116 colon; NCI-H522 lung; ACHN renal; SW-620 colon; 786-0 renal; SNB-19 CNS; IGROV1 ovarian; MCF7 breast.
Holding throughout (assay): NCI tumour cell line growth inhibition, 48 h

Consider 15 compounds from PubChem BioAssay (NCI).

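48-hour exposure; five concentrations; linearly interpolated endpoints. TGI: concentration producing complete growth inhibition.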

Regarding `COC(=O)c1cc(C(=CCC[C@H]2CC[C@@]3(C)C(CCC4C3CC[C@@]3(C)C4CC[C@@H]3C(C)CCCC(C)C)C2)c2cc(Cl)c(OC(=O)c3ccccc3)c(C(=O)OC)c2)cc(Cl)c1OC(=O)c1ccccc1` (stereo not given in full), the TGI with OVCAR-4 ovarian, with CCRF-CEM leukemia, with UACC-62 melanoma, in the test with HCT-116 colon, in the test on NCI-H522 lung and in the test on ACHN renal was above 10 µM throughout. Also, the TGI with SW-620 colon, with 786-0 renal, with SNB-19 CNS, in the test with IGROV1 ovarian and in the test with MCF7 breast was above 10 µM throughout.
Consider `O=C(OCCC12CC3CC(CC(C3)C1)C2)c1ccc(NCc2cc(O)ccc2O)cc1`, for which the TGI with OVCAR-4 ovarian came to 3.17 µM; with CCRF-CEM leukemia, 15.9 µM; in the test with UACC-62 melanoma, 3.61 µM; in the test on HCT-116 colon, 5.68 µM; with NCI-H522 lung, 0.35 µM; with ACHN renal it was 5.18 µM. Besides, the TGI in the test on SW-620 colon was 6.56 µM; in the test with 786-0 renal, 4.73 µM; in the test on SNB-19 CNS it was 3.23 µM; with IGROV1 ovarian it was 0.277 µM; in the test with MCF7 breast, above 100 µM.
In the case of `CC(=O)OCC1OC(O/C=C(\CN=[N+]=[N-])C(C)=O)C(OC(C)=O)C(OC(C)=O)C1OC(C)=O` (stereo not given), the TGI with OVCAR-4 ovarian is 43.1 µM; in the test on CCRF-CEM leukemia it was 3.59 µM; in the test on UACC-62 melanoma it was 25.3 µM; in the test with HCT-116 colon, 13.8 µM; in the test on NCI-H522 lung it was 5.08 µM; with ACHN renal, 12.4 µM. Further, the TGI with SW-620 colon is 16.9 µM; in the test with 786-0 renal, 18.2 µM; in the test with SNB-19 CNS it was 83.8 µM; with IGROV1 ovarian it was 39.2 µM; in the test with MCF7 breast, 28 µM.
On to `CC(=O)N1c2ccccc2C(C)C1c1[nH]c2ccccc2c1C` (stereo not given), for which the TGI was above 100 µM in the test with OVCAR-4 ovarian; above 100 µM in the test on CCRF-CEM leukemia; 48.9 µM with UACC-62 melanoma; 41.6 µM in the test on HCT-116 colon; 49.2 µM in the test on NCI-H522 lung; above 100 µM in the test on ACHN renal. Also, the TGI in the test on SW-620 colon was above 100 µM; with 786-0 renal, 39.9 µM; with SNB-19 CNS, above 100 µM; in the test with IGROV1 ovarian, above 100 µM; in the test on MCF7 breast it was above 100 µM.
For the compound `O=[N+]([O-])c1ccc(Cl)cc1N/N=C/c1cccc2cccnc12`, the TGI with OVCAR-4 ovarian, in the test on CCRF-CEM leukemia, in the test with UACC-62 melanoma, in the test with HCT-116 colon, with NCI-H522 lung and in the test on ACHN renal was above 100 µM throughout. Further, the TGI in the test on SW-620 colon, in the test on 786-0 renal, in the test with SNB-19 CNS, with IGROV1 ovarian and in the test with MCF7 breast was above 100 µM each time.
Consider `COc1ccc2cc(C(=O)NCCCNC(=O)c3ccc4cc(OC)ccc4c3)ccc2c1`, for which the TGI in the test on OVCAR-4 ovarian, in the test with CCRF-CEM leukemia, with UACC-62 melanoma, in the test with HCT-116 colon, with NCI-H522 lung and in the test on ACHN renal was above 100 µM in each case. In addition, the TGI with SW-620 colon is above 100 µM; in the test on 786-0 renal it was 57.5 µM; in the test on SNB-19 CNS, 30.6 µM; in the test on IGROV1 ovarian it was above 100 µM; with MCF7 breast it was above 100 µM.
On to `N=c1c2c(=S)n(-c3ccccc3)c(=S)n(-c3ccccc3)c2nc(SCCN2CCOCC2)n1-c1ccccc1`, for which the TGI with OVCAR-4 ovarian turned out to be 3.4 µM; with CCRF-CEM leukemia, 3.19 µM; with UACC-62 melanoma it was 3.29 µM; in the test on HCT-116 colon, 3.45 µM; in the test on NCI-H522 lung it was 3.16 µM; in the test with ACHN renal, 3.5 µM. The TGI is 3.96 µM in the test on SW-620 colon; 3.14 µM in the test with 786-0 renal; 24 µM in the test with SNB-19 CNS; 3.36 µM in the test with IGROV1 ovarian; above 100 µM in the test on MCF7 breast.
On to `NC(=O)CC(N=C1C(=O)OC(C(O)CO)C1=NC(CC(N)=O)C(=O)O)C(=O)O` (stereo not given), for which the TGI in the test with OVCAR-4 ovarian, in the test on CCRF-CEM leukemia, with UACC-62 melanoma, with HCT-116 colon, in the test with NCI-H522 lung and in the test on ACHN renal was above 100 µM each time. For the same compound, the TGI in the test on SW-620 colon, in the test with 786-0 renal, with SNB-19 CNS, with IGROV1 ovarian and with MCF7 breast was above 100 µM in each case.
`CC1(C)CCC(=O)NC1CC(=O)CC1NC(=O)CCC1(C)C` (stereo not given): the TGI with OVCAR-4 ovarian, in the test with CCRF-CEM leukemia, in the test with UACC-62 melanoma, in the test with HCT-116 colon, in the test with NCI-H522 lung and in the test on ACHN renal was above 100 µM in each case. Further, the TGI in the test on SW-620 colon, in the test on 786-0 renal, in the test on SNB-19 CNS, in the test with IGROV1 ovarian and with MCF7 breast was above 100 µM throughout.
Consider `Clc1ncc(Cl)c(Cl)n1`, for which the TGI with OVCAR-4 ovarian was 3.53 µM; in the test with CCRF-CEM leukemia it was above 100 µM; with UACC-62 melanoma, 4.42 µM; in the test with HCT-116 colon, 8.01 µM; in the test with NCI-H522 lung it was 5.69 µM; with ACHN renal, 3.63 µM. The TGI in the test with SW-620 colon came to 2.94 µM; in the test on 786-0 renal, 7.49 µM; with SNB-19 CNS, 10.3 µM; with IGROV1 ovarian, 23.3 µM; in the test on MCF7 breast, 4.8 µM.
On to `CC(C)C1CC[C@H](C)C[C@@H]1OC(=O)C(C(=O)O[C@H]1C[C@@H](C)CCC1C(C)C)C(O)[C@@H]1OC(C)(C)O[C@H]1C1COC(C)(C)O1` (stereo not given in full), for which the TGI in the test with OVCAR-4 ovarian is 50.9 µM; with CCRF-CEM leukemia it was 50.2 µM; with UACC-62 melanoma, 40.5 µM; with HCT-116 colon, 23.9 µM; in the test on NCI-H522 lung, 3.95 µM; with ACHN renal it was 32 µM. Moreover, the TGI in the test with SW-620 colon is 35.7 µM; with 786-0 renal, 31.7 µM; in the test with SNB-19 CNS, 29.8 µM; in the test on IGROV1 ovarian it was 30.4 µM; in the test with MCF7 breast, 22.6 µM.
With `Cc1nnc(-n2c(O)cc(=O)n(-c3ccccc3)c2=S)nc1/C=C/c1ccc(N(C)C)cc1`, the TGI in the test with OVCAR-4 ovarian is above 58.1 µM; in the test with CCRF-CEM leukemia, above 100 µM; in the test with UACC-62 melanoma it was above 46.8 µM; with HCT-116 colon, above 55.7 µM; in the test on NCI-H522 lung it was 8.33 µM; in the test with ACHN renal, above 49.5 µM. Further, the TGI in the test on SW-620 colon was above 52.9 µM; with 786-0 renal, above 59.4 µM; in the test with SNB-19 CNS, above 63 µM; in the test with IGROV1 ovarian it was 34.2 µM; in the test on MCF7 breast it was above 40.9 µM.
Take `N#Cc1ccc(Oc2nc3ccc(C(F)(F)F)cc3nc2-c2ccccc2)cc1`: the TGI is 32.4 µM with OVCAR-4 ovarian; 44.7 µM with CCRF-CEM leukemia; above 100 µM in the test on UACC-62 melanoma; 28.6 µM with HCT-116 colon; 32.2 µM in the test with NCI-H522 lung; 28.4 µM in the test on ACHN renal. Moreover, the TGI in the test on SW-620 colon was 35.7 µM; in the test with 786-0 renal it was 30.8 µM; in the test with SNB-19 CNS, 41.2 µM; in the test with IGROV1 ovarian, 41.3 µM; with MCF7 breast, 44.1 µM.
Regarding `CC1(C)CC2(C)CC1CC2NC(=O)CCN1CCOCC1` (stereo not given), the TGI with OVCAR-4 ovarian, in the test with CCRF-CEM leukemia, in the test with UACC-62 melanoma, in the test with HCT-116 colon, in the test on NCI-H522 lung and in the test with ACHN renal was above 100 µM each time. The TGI in the test with SW-620 colon, in the test with 786-0 renal, with SNB-19 CNS, in the test with IGROV1 ovarian and with MCF7 breast was above 100 µM each time.
As to `Oc1ccc(O)c(CNc2ccccc2)c1`, the TGI is 28.6 µM in the test on OVCAR-4 ovarian; above 100 µM in the test on CCRF-CEM leukemia; 30.6 µM in the test on UACC-62 melanoma; 23.9 µM in the test on HCT-116 colon; 6.65 µM in the test on NCI-H522 lung; 25.5 µM in the test on ACHN renal. Moreover, the TGI was above 100 µM in the test with SW-620 colon; 26.1 µM in the test on 786-0 renal; 45.1 µM in the test with SNB-19 CNS; 33.4 µM in the test with IGROV1 ovarian; 57.7 µM in the test with MCF7 breast.
